Where “and” joins values, the source holds several entries; their conditions need not be identical. Equal values may be shown once. Read-outs that look alike come from different tables or passages of the source.
Assays:
[1] = Phase 1 study, once daily high-dose 5-day schedule, relapsed acute leukemia or other hematologic malignancy; format: in vivo
Description: An additional Phase 1 study was conducted in patients with relapsed acute leukemia or other hematologic malignancy using a once daily high-dose 5-day dosing schedule. […] Hematologic toxicities cannot be assessed in this patient population. Two patients with AML developed tumor lysis syndrome, resulting in one death. Transient decreases in peripheral white blood cell counts were noted.

[2] = Pharmacokinetics and food effect in the solid tumor Phase 1 study; format: in vivo, patients; settings: oral, after a fasting period
[3] = Route of elimination of radiolabeled drug, rats; format: in vivo; settings: within 24 hours
Description: (§1) Mass balance/route of elimination studies have not been conducted in humans. Animal studies indicate that the principal route of elimination is via renal excretion, with 80% and 62% of radiolabeled drug appearing in the urine of monkeys and rats, respectively, within 24 hours.

[4] = Phase 1 dose-escalation study of CI-994 in solid tumor patients; format: in vivo
Description: In one such study, patients were treated using a dose-escalation scheme that increased both the daily dose and the duration of treatment. The majority of patients had received extensive prior chemotherapy. The maximum-tolerated dose (MTD) was 15 mg/m^2/day when the duration of treatment was 14 consecutive days. To allow more prolonged treatment, lower doses were studied. Using a schedule of 8 weeks of continuous daily therapy, followed by a 2-week ‘drug holiday’, the MTD was 8 mg/m^2/day. […] Blood counts tended to stabilize even with continued treatment and to recover quickly when treatment was stopped.

[5] = tested on: LC-12 squamous cell lung carcinoma tumor; test: LC-12 squamous cell lung carcinoma implanted subcutaneously in BALB/C mice, chemotherapy study; format: in vivo, female BALB/C mice; settings: for antitumor effect of the agents individually: single agent
Description: (§2) The synergistic combinations provided by this invention have been evaluated in standard chemotherapy studies using female BALB/C mice weighing 18 to 20 g. The test mice were obtained from Charles River Laboratories, Wilmington, Mass. On Day 0 of the test, each mouse was surgically implanted (subcutaneously) with a fragment of LC-12 squamous cell lung carcinoma tumor weighing approximately 30 to 60 mg. The tumor fragments were implanted using a 12 gauge trocar. The mice were weighed weekly, and tumor size (width and length in mm) were measured two times each week with standard calipers. Tumor mass for each animal was calculated according to the formula: [formula]
(§3) where “a” is width of the tumor in mm, and “b” is the length in mm. Evaluation of anticancer activity was established by the formula T-C, where “T” and “C” are the median time (in days) required for the treated and control (respectively) tumors to reach a predetermined size of about 750 mg (the “evaluation size”). Tumors generally reached size of about 150 to about 200 mg before drug dosing was initiated. Antitumor activity was assessed according to four parameters: (1) partial tumor response (PR); (2) complete tumor response (CR); (3) tumor-free survival (TF); and (4) tumor growth delay (TL). Tumor growth delay is expressed as a T-C value, where T is the median days required for the treatment group tumors to reach a predetermined size (e.g., 750 mg), and C is the median days for the control group tumors to reach this size. From the tumor growth delay value, the net log10 tumor cell kill is calculated as follows:
(§4) Net log10 tumor cell kill=[(T−C)−Rx]/3.32×Td
(§5) where Td is the days for the tumor mass to double, and Rx is the total days of treatment. Td is estimated from the best fit straight line from a log-linear plot of the control-group tumors in exponential growth (200 to 800 mg range). The conversion of the T-C values to log10 cell kill is possible because the Td for tumors regrowing after treatment is approximately the same as that for untreated control mice. The net log10 kill value normalizes the efficacy data for tumor growth during treatment regimens of varied duration and provides an estimate of whether an actual regression of the tumor occurred. Positive values indicate that an actual reduction of tumor burden occurred. Negative values indicate the tumor actually grew (although possibly more slowly) during treatment. Tumor-free survivors were excluded from these calculations.
(§6) Acetyldinaline was suspended in 0.5% aqueous methyl cellulose and administered orally at various dosages in 0.5 mL volumes. Docetaxel was dissolved in 5% ethanol, 5% Tween 80, 90% aqueous saline and administered intravenously at various dosage levels in 0.2 mL injections.
(§7) The animals were divided into groups of 10 animals each. One group served as controls and received vehicle alone, with no drug treatments. Two groups received oral doses of acetyldinaline alone at a specified level (as shown in Table 3) of active drug (30 mg/kg and 60 mg/kg). […] Three groups received docetaxel alone at doses of 3.5, 5.6, and 9.0 mg/kg. Two groups received acetyldinaline at the recited doses, in combination with 3.5 mg/kg of docetaxel, and another two groups received acetyldinaline at the recited doses in combination with docetaxel at […], and the final two groups received acetyldinaline at the recited doses, in combination until 9.0 mg/kg of docetaxel.

[6] = as above; format: in vivo, female BALB/C mice; settings: female, mouse, in vivo, tumor-bearing BALB/C mice
Description: as §2, §3, §4, §5, §6, §7

[7] = Route of elimination of radiolabeled drug, monkeys; format: in vivo; settings: within 24 hours
Description: as §1

[8] = CI-994 30.0 mg/kg/injection oral, Days 11-13, 15-17, 19-21, alone
[9] = CI-994 60 mg/kg/day (MTD), alone
[10] = CI-994 60.0 mg/kg/injection oral, Days 11-13, 15-17, 19-21, alone
[11] = Docetaxel 3.5 mg/kg/injection iv, Days 11, 15, 19, alone
[12] = Docetaxel 5.6 mg/kg/injection iv, Days 11, 15, 19, alone
[13] = Docetaxel 9.0 mg/kg/injection iv, Days 11, 15, 19, alone

CC(=O)Nc1ccc(C(=O)Nc2ccccc2N)cc1 [CI-994, 4-acetylamino-N-(2′-aminophenyl)-benzamide]
Other adverse events ([1]; in vivo): nausea, vomiting, hypotension resulting from dehydration, hypocalcemia, headache | dose-limiting toxicity ([1]; in vivo): acute CNS toxicity manifested as sedation and somnolence | MTD ([1]; once daily high-dose 5-day dosing schedule): 135 mg/m^2/day | half-life ([2]; human, plasma, preliminary results, read-out: terminal elimination half-life (converted)): ~15 h | maximum plasma CI-994 concentrations with increasing dose levels [2]: less than dose-proportional | terminal elimination half-life and apparent clearance rate versus dose [2]: independent of the dose administered | radiolabeled drug appearing in the urine [3]: 62% | MTD ([4]; 8 weeks of continuous daily therapy followed by a 2-week drug holiday): 8 mg/m^2/day | Responses ([4]; Phase 1 patients): one partial response in a heavily pretreated patient with NSCLC and a minor response in one patient each with renal cell cancer and NSCLC | Other toxicities ([4]; human, in vivo): nausea, vomiting, diarrhea, anorexia, fatigue, mucositis, headache, dehydration, and increases in liver and renal function test values | cumulative toxicity ([4]; human, in vivo): no evidence of cumulative toxicity | dose-limiting toxicity ([4]; human, in vivo): thrombocytopenia or neutropenia | time of occurrence of dose-limiting toxicity after start of therapy ([4]; human, in vivo): ≤ 1 month | maximum-tolerated dose (MTD) ([4]; treatment for 14 consecutive days, patients mostly with extensive prior chemotherapy): 15 mg/m^2/day | Clinical benefit (8 mg/m^2 given orally daily): reported in patients with renal cell cancer | Objective responses (8 mg/m^2 given orally daily): seen in patients with nonsmall cell lung cancer | dose-limiting toxicity (in vivo, po): Thrombocytopenia | partial tumor response ([5]; CI-994 30 mg/kg/day (50% its MTD), alone): 20% | % Weight Change [5, 8]: −5.5% | Net Log10 Kill [5, 8]: −0.5 log10 | Non-specific Deaths [5, 8]: 0/10 | PR (partial response) [5, 8]: 2/10 | T − C (tumor growth delay to 750 mg) [5, 8]: 4.6 days | Tumor Free (Day 105) [5, 8]: 0/10 | CR (complete response) ([5]; CI-994 30.0 mg/kg/injection oral, Days 11-13, 15-17, 19-21, alone, 30 mg/kg): no complete tumor responses and 0/10 | complete tumor response rate [5, 9]: 40% | partial tumor response [5, 9]: 10% | mice tumor free when the study ended ([5]; CI-994 60 mg/kg/day (MTD), alone, 105 days after the last CI-994 treatment): 30% | % Weight Change [5, 10]: −10.5% | CR (complete response) [5, 10]: 4/10 | Net Log10 Kill [5, 10]: −0.3 log10 | Non-specific Deaths [5, 10]: 0/10 | PR (partial response) [5, 10]: 1/10 | T − C (tumor growth delay to 750 mg) [5, 10]: 4.9 days | Tumor Free (Day 105) [5, 10]: 3/10 | antitumor effect of the agents individually [5]: only modest antitumor efforts | MTD ([6]; oral): 60 mg/kg/day | radiolabeled drug appearing in the urine [7]: 80%

CC(=O)O[C@@]12CO[C@@H]1C[C@H](O)[C@@]1(C)C(=O)[C@H](O)C3=C(C)[C@@H](OC(=O)[C@H](O)[C@@H](NC(=O)OC(C)(C)C)c4ccccc4)C[C@@](O)([C@@H](OC(=O)c4ccccc4)[C@H]21)C3(C)C [Docetaxel]
% Weight Change [5, 11]: −7.3% | CR (complete response) [5, 11]: 0/10 | Non-specific Deaths [5, 11]: 0/10 | PR (partial response) [5, 11]: 0/10 | T − C (tumor growth delay to 750 mg) [5, 11]: -1.7 days | Tumor Free (Day 105) [5, 11]: 0/10 | % Weight Change [5, 12]: −11.7% | CR (complete response) [5, 12]: 0/10 | Non-specific Deaths [5, 12]: 1/10 | PR (partial response) [5, 12]: 1/10 | T − C (tumor growth delay to 750 mg) [5, 12]: -0.5 days | Tumor Free (Day 105) [5, 12]: 0/10 | % Weight Change [5, 13]: −16.7% | CR (complete response) [5, 13]: 0/10 | Net Log10 Kill [5, 13]: −0.2 log10 | Non-specific Deaths [5, 13]: 1/10 | PR (partial response) [5, 13]: 3/10 | T − C (tumor growth delay to 750 mg) [5, 13]: 3.3 days | Tumor Free (Day 105) [5, 13]: 0/10 | CR (complete response) ([5]; Docetaxel 9.0 mg/kg/injection iv, Days 11, 15, 19, alone, listed as docetaxel): no complete tumor responses | partial tumor responses ([5]; docetaxel 9 mg/kg/day (MTD), alone): 30% | antitumor effect of the agents individually [5]: only modest antitumor efforts | MTD ([6]; intravenous, read-out: MTD of docetaxel): 9 mg/kg/day

From patent publication US20030083366A1, “Combination chemotherapy” (priority 2001, published 2003)
